Twelve compounds from patent publication US8168628B2, “Conjugated psychotropic drugs and uses thereof” (Ramot at Tel-Aviv University Ltd., priority 2001, dated 2012) can be followed below.

Each structure is given as a SMILES string. Counter-ions that a name gives are not always drawn. Like-named read-outs stand apart in the source and are kept apart here.

One data set concerns prolactin. As to the kind of experiment: Prolactin blood level in rats (enzyme immunometric assay). Type of data set: in vivo, rat. The following applies: i.p.; measured at 0, 60 and 120 min after treatment. An excerpt:
Prolactin secretion: Typical neuroleptics induce hyperprolactinemia, which is frequently associated with gallactorehea and impaired gonadal and sexual function. The measurement of the circulatory plasma prolactin level was therefore used as a sensitive biochemical marker for the psychotropic activity of the known neuroleptics and the chemical conjugates of the present invention, following intraperitoneal or oral administration thereof. Thus, blood was collected from the punctured eye orbital of rats under ether anesthesia and the assay was performed using Millennia, rat prolactin enzyme immunometric assay-kit (DPC, USA).

The next data set concerns B16 MDR. As to the kind of experiment: Proliferation test, B16 MDR cells. The following applies: Mus musculus; linear regression of survival percentage. The format is cell-based, murine. Here is the method:
(§1) Cell lines: Human prostate carcinoma (PC-3), human colon carcinoma (HT-29), murine melanoma (B-16) and its drug resistant subclone (B-16 MDR), mouse fibroblasts (3T3), myeloid leukemia (HL 60) and its drug resistant subclone (HL 60 MX2), endometrium cell line (MES SA) and its drug resistant subclone (MES DX5), jurkat T lymphoma and monocyte leukemia (U-937), were used in this study.
(§2) Proliferation of cancer and normal cells: Proliferation was measured by neutral red assay or by a fluorometric assay quantitating DNA content. In the neutral red assay, the neutral red is absorbed by lysosomes, thus causing coloring of living cells. Quantitative analysis is performed by colorimetric assay (ELISA reader at 550 nm). In the fluorometric assay, alamar blue is used as a redox indicator. Alamar blue fluorescence was measured at an excitation wavelength of 544 nm and an emission wavelength of […] (FLUOstar BMG Lab Technologies, Offenburg, Germany).
(§3) The cells were sub-cultured and the tested compounds were added thereto in increasing concentrations. The IC50 values were determined by linear regression of the survival percentage of the cells.

A further data set relates to B16. The experiment in a line: Proliferation test, B16 melanoma cells. Type of data set: cell-based, murine. Particulars: Mus musculus, B16; linear regression of survival percentage. Here is the method: as §1, §2, §3
The test system of another data set is HT-29. As to the kind of experiment: Proliferation test, HT-29 cells. The format is cell-based. Particulars: Homo sapiens, linear regression of survival percentage. As for the experimental part:
as §1, §2, §3

A further data set concerns PC-3. As to the kind of experiment: Proliferation test, PC-3 cells. The format is cell-based. Particulars: Homo sapiens, linear regression of survival percentage. As for the experimental part: as §1, §2, §3
Another data set deals with Normal rat fibroblasts. The experiment in a line: Proliferation test, normal rat fibroblasts. The format is cell-based. Particulars: Fibroblast, linear regression of survival percentage. Here is the method:
The primary cultures of rat fibroblasts were obtained from neonatal rats using known procedures.
as §2, §3

The subject of data set [1] is rats. The experiment in a line: Catalepsy in rats, “wall” test. Particulars: i.p.; for induced catalepsy, SAR studies: compared with perphenazine (FIG. 2); for time course of catalepsy: over a period of 7 hours (FIGS. 4a, 4b).
Method: (§4) Animals: Young adult male rats (150-230 grams) were purchased from Harlan (Israel). Animals were divided 2-5/cage and housed in controlled conditions in the animal room for a week prior to the experiments. The experiments were conducted with naive animals, in a double blind procedure. In each experiment various treatment groups (about 5-10 animals each) were tested.
(§5) Catalepsy in rats: The manifestation of the extrapyramidal adverse effects induced by typical neuroleptics was evaluated by the appearance of stereotypic cataleptic behavior in rats following the neuroleptic treatment. Catalepsy was determined by two methods: (i) by measuring the time it took an animal hanging on a cage wall to move its hind legs and reach a flat surface (the “wall” test); and (ii) rats were placed on a flat surface with their anterior limbs leaning on a flat bar (5.5 cm height) resembling a piano playing position. Catalepsy was determined by the time it took an animal to descend and reach the flat surface (the “piano” test). The maximum time of follow up was 2 minutes and these measurements were performed hourly and individually for each animal. These tests provide an assessment of central dopamine (DA) blocking activity and are acceptable criteria for extrapyramidal symptoms induced by anti-psychotic drugs [10].
(§6) A control animals group was treated with the vehicle (lactic acid) only.
In another data set the test system is 3T3. The experiment in a line: Proliferation test, 3T3 fibroblasts. Type of data set: cell-based. The following applies: Mus musculus, NIH3T3; linear regression of survival percentage. Here is the method:
as §1, §2, §3

The test system of a further data set is HL 60. The experiment in a line: Proliferation test, HL 60 cells. The following applies: Homo sapiens, linear regression of survival percentage. Type of data set: cell-based. As for the experimental part: as §1, §2, §3
The next data set relates to HL 60 MX2 (MDR). As to the kind of experiment: Proliferation test, HL 60 MX2 (MDR) cells. The format is cell-based. Particulars: Homo sapiens, HL60/MX2; linear regression of survival percentage. Here is the method:
as §1, §2, §3

Another data set concerns MES SA. As to the kind of experiment: Proliferation test, MES SA cells. The format is cell-based. Particulars: Homo sapiens, linear regression of survival percentage. Here is the method: as §1, §2, §3
A further data set deals with MES SA DX5 (MDR). The experiment in a line: Proliferation test, MES SA DX5 (MDR) cells. Type of data set: cell-based. Particulars: Homo sapiens, linear regression of survival percentage. As for the experimental part:
as §1, §2, §3

The subject of another data set is Jurkat T lymphoma cells. As to the kind of experiment: Proliferation / viability test, Jurkat T lymphoma cells. Particulars: Homo sapiens, linear regression of survival percentage, read-out: IC50, JURKAT. Type of data set: cell-based. Here is the method: as §1, §2, §3
The subject of a further data set is U-937. The experiment in a line: Proliferation test, U-937 cells. The format is cell-based. The following applies: Homo sapiens, linear regression of survival percentage. As for the experimental part:
as §1, §2, §3

The test system of data set [2] is rats. As to the kind of experiment: Behavioral criteria: sedation and mobility score in rats. Particulars: i.p., 5 mg/kg perphenazine, 7.5 mg/kg fluphenazine or equimolar conjugate, score 0-3.
Method: The effect of the administration of the tested compound on animals behavior was measured by evaluating the degree of animal sedation and mobility following the treatment described hereinabove, using a score of from 0 to 3. A score of 0 represents active and mobile animals, 1 represents calm and mobile animals, 2 represents calm and immobile animals and 3 represents completely ataxic and non-alert animals.
Data set [3] in a line: Stability upon prolonged storage (NMR). Type of data set: physicochemical. The following applies: about 3 months storage; NMR spectroscopy.
In data set [4] the test system is normal and transformed cells. The experiment in a line: Proliferation tests, summary over the tested cell lines. Particulars: read-out: IC50 range, anti-proliferative activity. Type of data set: cell-based. Here is the method: as §2, §3
For data set [5], the system named is C6 rat glioma cells. As to the kind of experiment: Chemosensitization in C6 rat glioma cells. Particulars: Cisplatin 5-50 μM, neutral red (FIG. 17). The format is cell-based. Here is the method: Chemosensitization: The chemosensitizing effect of perphenazine and its chemical conjugate AN 168 was measured in vitro. Various concentrations of perphenazine or AN 168 were co-administered together with a chemotherapeutic agent to either C6 rat glioma cells or to Jurkat T lymphoma cells. Cells viability and/or DNA fragmentation following treatment with either the chemotherapeutic agent, perphenazine, AN 168, a combination of the chemotherapeutic agent and perphenazine or a combination of a chemotherapeutic agent with AN 168 were measured as described hereinabove.

Data set [6] relates to C6 rat glioma cells. The experiment in a line: DNA fragmentation in C6 rat glioma cells (propidium iodide flow cytometry). The format is cell-based. The following applies: Cisplatin 30 μM; perphenazine 25 and 50 μM; AN 168 25, 50 μM (FIG. 18). As for the experimental part:
Apoptosis and DNA fragmentation: Fragmentation of cell nuclei was studied by flow cytometric analysis of propidium iodide-stained cells. This analysis was performed using a FACScan (Becton Dickinson, Mountain View, Calif.) equipped with an argon ion laser adjusted to an excitation wavelength of 480 nm and with a Doublet Discrimination Module (DDM). Lysis II (Becton Dickinson) software was used for data acquisition. Apoptotic nuclear changes were evaluated according to the criteria of Nicolletti et al..
The DNA fragmentation was determined by the propidium iodide flow cytometric method described hereinabove.
(A flow cytometer gives signals particle by particle.)

The subject of data set [7] is rats. Particulars: male, rat, in vivo, ip.
Method: as §4, §5, §6
Data set [8] has as its system rats. The experiment in a line: D-Amphetamine-induced hyperactivity in rats. Type of data set: in vivo, rat. The following applies: GABA alone, 5 mg/kg i.p. (FIGS. 22-25). Here is the method:
D-Amphetamine-induced hyperactivity in rats: The efficacy of the chemical conjugates of the present invention was studied using the D-amphetamine-induced hyperactivity and motility model, which is known as one of the most established animal models for schizophrenia.
Naïve Wistar male rats were placed in individual boxes. In each experiment 4 rats were studied. Perphenazine or equimolar doses of its chemical conjugate AN-168 were administered intraperitoneally (ip) to the rats 30 minutes prior to intraperitoneal administration of amphetamine (2.5 mg/kg), or 90 minutes prior to oral administration of amphetamine (2.5 mg/kg). The animals locomotor activity was assessed using two parameters: climbing attempts of the animal on the barrel walls (as big movements) and head movement of the animal (as small movements). Assessment was recorded every 15 minutes for two hours. Each animal was tested at each time point for 120 seconds.
The climbing behavior of the rats in each group was measured as described hereinabove.

Setting [9] is: 5 mg/kg perphenazine and equimolar conjugates.
[10] abbreviates: 5 mg/kg perphenazine, 7.5 mg/kg fluphenazine, equimolar conjugates, sum 0-420 min, normalized to parent drug (FIG. 3a).

For `O=C(CCCc1ccccc1)OCCN1CCN(CCCN2c3ccccc3Sc3ccc(Cl)cc32)CC1` [AN-130, Perphenazine 4-Phenylbutyrate], the “time at which prolactin blood level peaked” value in the data set with prolactin came to 60 min. For the same compound, the IC50 (in general, the concentration needed to halve the response being measured) in the data set with B16 MDR came out at 58 µM; in the data set on B16 it was 36.5 ± 8.1 µM; with HT-29, 17.3 ± 3.07 µM; with PC-3, 52.9 ± 28.7 µM; in the data set on Normal rat fibroblasts, 41.9 ± 16.8 µM. In addition, the total catalepsy entry in the data set on rats [1] (5 mg/kg perphenazine and equimolar conjugates, sum of determinations at 0, 60, 120 min (FIG. 1a)) is “catalepsy was induced”.

Regarding `CCC(=O)OCCN1CCN(CCCN2c3ccccc3Sc3ccc(Cl)cc32)CC1` [AN-177, Perphenazine Propionate], the IC50 with HT-29 was found to be 25.8 µM; with 3T3, 24.6 µM; with HL 60, 15.1 µM; in the data set with HL 60 MX2 (MDR) it was 17.6 µM. The “induced catalepsy, SAR studies” value with rats [1] (setting [9]) is “significant reduction of the induced catalepsy”.

On to `CCCCC(=O)OCCN1CCN(CCCN2c3ccccc3Sc3ccc(Cl)cc32)CC1` [AN-178, Perphenazine Valerate], for which the IC50 in the data set with HT-29 is 11.5 µM; in the data set with 3T3, 18.6 µM. In the data set with rats [1] (setting [9]), the “induced catalepsy, SAR studies” value is listed as “significant reduction of the induced catalepsy”.

Turning to `CCC(=O)OCCN1CCN(CCCN2c3ccccc3Sc3ccc(C(F)(F)F)cc32)CC1` [AN-179, Fluphenazine Propionate], the results for the IC50 with HL 60 and in the data set on HL 60 MX2 (MDR) were 18.2 µM and 21.4 µM, respectively.

With `CCCC(=O)OCCN1CCN(CCCN2c3ccccc3Sc3ccc(C(F)(F)F)cc32)CC1` [AN-180, Fluphenazine Butyrate], the IC50 in the data set on HL 60 was 19 µM; with HL 60 MX2 (MDR) it was 18.8 µM; in the data set on MES SA, 12 µM; with MES SA DX5 (MDR) it was 12.7 µM; in the data set on Jurkat T lymphoma cells it was 10.4 µM; with U-937, 12.2 µM. Besides, the total catalepsy result in the data set with rats [1] (setting [10]) is reported as “reduced catalepsy significantly”. For the same compound, the “time course of catalepsy” value with rats [1] is “lower catalepsy”. The “sedation and mobility score, 30 min” value with rats [2] is given as 1. For the same compound, the “sedation and mobility score, 60 min” value in the data set with rats [2] was 2. In the data set on rats [2], the “sedation and mobility score, 90 min” value came out at 3. Also, in the data set on rats [2], the “sedation and mobility score, 120 min” value amounted to 2. Besides, the “sedation and mobility score, 180 min” value in the data set on rats [2] came out at 1. Moreover, the “sedation and mobility score, 240 min” value with rats [2] turned out to be 1.

For the compound `CCCCC(=O)OCCN1CCN(CCCN2c3ccccc3Sc3ccc(C(F)(F)F)cc32)CC1` [AN-181, Fluphenazine Valerate], the values for the IC50 in the data set on HL 60 and with HL 60 MX2 (MDR) were 14.8 µM and 16.7 µM, respectively.

As to `NCCCC(=O)OCCN1CCN(CCCN2c3ccccc3Sc3ccc(C(F)(F)F)cc32)CC1` [AN-187, fluphenazine 4-Aminobutyrate Trihydrochloride], in the data set with prolactin, the “time at which prolactin blood level peaked” value is 60 min. Besides, in the data set with HL 60, 18.6 µM corresponded to half-maximal inhibition (IC50). This compound also yielded an IC50 in the data set with HL 60 MX2 (MDR) of 17.1 µM. Besides, the IC50 in the data set on MES SA was determined as 14.4 µM. For the same compound, inhibition in the data set on MES SA DX5 (MDR) was half-maximal at 9.47 µM (IC50). Also, the IC50 with Jurkat T lymphoma cells is 10.3 µM. Also, half-maximal inhibition in the data set on U-937 (IC50) required 18.9 µM. In addition, in [3], the “stability upon prolonged storage” value is on record as “does not tend to decompose upon a prolonged storage”. Also, in the data set on rats [1] (setting [10]), the total catalepsy entry is given as “reduced it considerably”. Besides, in the data set with rats [1] (equimolar to 7.5 mg/kg fluphenazine (FIG. 4b)), the “catalepsy at the end of the 7-hours period” value is given as “abolished at the end of the 7-hours period”. Besides, the “time course of catalepsy” value with rats [1] is on record as “lower catalepsy”. In the data set on rats [2], the “sedation and mobility score, 30 min” value is on record as 1; the “sedation and mobility score, 60 min” value came to 2; the “sedation and mobility score, 90 min” value is listed as 2; the “sedation and mobility score, 120 min” value is recorded as 2. Moreover, in the data set with rats [2], the “sedation and mobility score, 180 min” value came to 1; the “sedation and mobility score, 240 min” value turned out to be 1.

As to `CCCC(=O)O` [BA, butyric acid, reference compound], the IC50 with B16 MDR is 8000 ± 546 µM; with B16 it was 1300 ± 113 µM; in the data set on HT-29 it was 7170 ± 2030 µM; with Normal rat fibroblasts, 5540 µM; in data set [4] it was 1000 to 8000 µM.

Consider `N.N.[Cl][Pt][Cl]` [Cisplatin, reference compound], for which, in the data set with C6 rat glioma cells [5], the “cells viability, Cisplatin alone” value is given as “completely resistant”. In addition, the DNA fragmentation result in the data set with C6 rat glioma cells [6] is on record as “no effect of DNA fragmentation”.

For `OCCN1CCN(CCCN2c3ccccc3Sc3ccc(C(F)(F)F)cc32)CC1` [Fluphenazine, fluphenazine, reference compound], the “time at which prolactin blood level peaked” value in the data set on prolactin stood at 60 min. Further, the “time course of catalepsy” value with rats [7] is given as “displayed catalepsy during the measured 7 hours”.

On to `NCCCC(=O)O` [GABA, γ-aminobutyric acid, reference compound], for which, in the data set on rats [8], the “effect on amphetamine-induced climbing and head movement” value was “did not modify the effect of amphetamine”.

With `O=C(O)CCCc1ccccc1` [PBA, 4-phenylbutyric acid], the IC50 in [4] is 2000 to 12000 µM.
